Results as given in patent publication US20070254864A1, “CHROMIUM COMPLEXES” (Mandrillus Pharma, LLC, priority 2006, published 2007).

System: db/db mice (BKS.Cg-m+/+Lepr^db/J)
Assay: In vivo efficacy: control of body mass in db/db mice
Conditions: five week old at start, ad libitum p.o. in drinking water (5 mM chromium, pH 5.8), on average 1 mg/kg/day, over 22 weeks, control mice receiving water reached 43 g
Procedure: The mice were otherwise fed normal chow. Over the course of 22 weeks, the mice consumed on average 1 mg/kg/day of the compound. Mice on treatment reached an average mass of 37 g, while control mice receiving water reached an average mass of 43 g.

Chromium Quinolinate [Example 1]
average mass reached: 37 g
